Patent US9232796B2, “Herbicidal compositions comprising 4-amino-3-chloro-5-fluoro-6-(4-chloro-2-fluoro-3-methoxyphenyl) pyridine-2-carboxylic acid or a derivative thereof and acetyl-CoA carboxylase (ACCase) inhibitors” (DOW AGROSCIENCES LLC, priority 2012, dated 2016)

Key:
[1] = system: ECHCO; assay: Example I postemergence foliar-applied, greenhouse, direct seeded rice weeds; type: in vivo, Echinochloa colona (L.) Link
From the text: (§1) Seeds or nutlets of the desired test plant species were planted in a soil matrix prepared by mixing a loam or sandy loam soil (e.g., 28.6 percent silt, 18.8 percent clay, and 52.6 percent sand, with a pH of about 5.8 and an organic matter content of about 1.8 percent) and calcareous grit in an 80 to 20 ratio. The soil matrix was contained in plastic pots with a volume of 1 quart and a surface area of 83.6 square centimeters (cm^2). When required to ensure good germination and healthy plants, a fungicide treatment and/or other chemical or physical treatment was applied. The plants were grown for 8-22 days in a greenhouse with an approximate 14 hr. photoperiod which was maintained at about 29° C. during the day and 26° C. during the night. Nutrients (Peters Excel® 15-5-15 5-Ca 2-Mg and iron chelate) were applied in the irrigation solution as needed and water was added on a regular basis. Supplemental lighting was provided with overhead metal halide 1000-Watt lamps as necessary. The plants were employed for testing when they reached the first through fourth true leaf stage.
(§2) Treatments consisted of the acid or esters of 4-amino-3-chloro-5-fluoro-6-(4-chloro-2-fluoro-3-methoxy-phenyl)pyridine-2-carboxylic acid (Compound A), each formulated as an SC (suspension concentrate), and various herbicidal components alone and in combination.
(§3) Other herbicidal components were applied on an acid equivalent (ae) or active ingredient (ai) basis and included acetyl coA carboxylase (ACCase)-inhibiting herbicides (cyclohexanedione and aryloxyphenoxypropionate chemical classes) cyhalofop-butyl formulated as Clincher® SF (285 gr ai/L EC), diclofop-methyl formulated as Hoelon® 3EC, fenoxaprop-p-ethyl+isoxadifen-ethyl formulated as RiceStar® HT (0.58 lb./gal EC), fenoxaprop-p-ethyl+mefenpyr diethyl formulated as Puma® IEC, metamifop formulated as Metamifop EC, haloxyfop-methyl formulated as Gallant Super®, fluazifop-p-butyl formulated as Fusilade® DX, quizalofop-p-ethyl formulated as Assure® II, profoxydim formulated as Aura® 20EC, clethodim applied as Intensity®, sethoxydim formulated as Poast®, and tralkoxydim formulated as Achieve®.
(§4) Treatment requirements were calculated based upon the rates being tested, the concentration of active ingredient or acid equivalent in the formulation, and a 12 mL application volume at a rate of 187 L/ha.
(§5) For treatments comprised of formulated compounds, measured amounts of compounds were placed individually in 25 mL glass vials and diluted in a volume of 1.25% (v/v) Agri-Dex® crop oil concentrated to obtain 12× stock solutions. […] Application solutions were prepared by adding an appropriate amount of each stock solution (e.g., 1 mL) and diluted to the appropriate final concentrations with the addition of 10 mL of an aqueous mixture of 1.25% (v/v) crop oil concentrate so that the final spray solutions contained 1.25+/−0.05% (v/v) crop oil concentrate.
All stock solutions and applications solutions were visually inspected for compound compatibility prior to application. Spray solutions were applied to the plant material with an overhead Mandel track sprayer equipped with a 8002E nozzles calibrated to deliver 187 L/ha over an application area of 0.503 m^2 at a spray height of 18 to 20 inches (46 to 50 cm) above average plant canopy height. Control plants were sprayed in the same manner with the solvent blank.
(§6) The treated plants and control plants were placed in a greenhouse as described above and watered by sub-irrigation to prevent wash-off of the test compounds. After approximately 3 weeks, the condition of the test plants as compared with that of the untreated plants was determined visually and scored on a scale of 0 to 100 percent where 0 corresponds to no injury or growth inhibition and 100 corresponds to complete kill. […]

[2] = system: ISCRU; assay: as above; type: in vivo, Ischaemum rugosum Salisb.
From the text: as §1, §2, §3, §4, §5
All stock solutions and applications solutions were visually inspected for compound compatibility prior to application. […]
as §6

[3] = system: AVEFA; assay: Example III postemergence foliar-applied, greenhouse, weeds common to row crops such as corn and soybeans; type: in vivo, Avena fatua L.
From the text: (§7) Seeds or nutlets of the desired test plant species were planted in a soil matrix prepared by mixing a loam or sandy loam soil (e.g., 28.6 percent silt, 18.8 percent clay, and 52.6 percent sand, with a pH of about 5.8 and an organic matter content of about 1.8 percent) and calcareous grit in an 80 to 20 ratio. The soil matrix was contained in plastic pots with a surface area of 84.6 square centimeters (cm^2) and a volume of 560 cubic centimeters (cm^3). When required to ensure good germination and healthy plants, a fungicide treatment and/or other chemical or physical treatment was applied. The plants were grown for 7-31 days (d) in a greenhouse with an approximate 15 hour (h) photoperiod which was maintained at about 23-29° C. during the day and 22-28° C. during the night. Nutrients (Peters Excel® 15-5-15 5-Ca 2-Mg) and water were added on a regular basis and supplemental lighting was provided with overhead metal halide 1000-Watt lamps as necessary. The plants were employed for testing when they reached the first, second, or third true leaf stage.
as §4, §2
(§8) Other herbicidal components were applied on an acid equivalent basis and included acetyl coA carboxylase (ACCase)-inhibiting herbicide (cyclohexanedione and aryloxyphenoxypropionate chemical classes) quizalofop-p-ethyl formulated as Assure® II.
(§9) All stock solutions and applications solutions were visually inspected for compound compatibility prior to application. Compound requirements are based upon a 12 mL application volume at a rate of 187 liters per hectare (L/ha). Formulated compounds were applied to the plant material with an overhead Mandel track sprayer equipped with 8002E nozzles calibrated to deliver 187 L/ha over an application area of 0.503 square meters (m^2) at a spray height of 18 to 20 inches (46 to 50 cm) above the average plant canopy height. Control plants were sprayed in the same manner with the solvent blank.
(§10) The treated plants and control plants were placed in a greenhouse as described above and watered by sub-irrigation to prevent wash-off of the test compounds. After approximately 2 weeks, the condition of the test plants as compared with that of the untreated plants was determined visually and scored on a scale of 0 to 100 percent where 0 corresponds to no injury or growth inhibition and 100 corresponds to complete kill.
(§11) Colby's equation was used to determine the herbicidal effects expected from the mixtures (Colby, S. R. 1967. Calculation of the synergistic and antagonistic response of herbicide combinations. Weeds 15:20-22.).
(§12) The following equation was used to calculate the expected activity of mixtures containing two active ingredients, A and B: Expected=A+B−(A×B/100)

[4] = system: LOLMU; assay: as above; type: in vivo, Lolium multiflorum Lam.
From the text: as §7, §4, §2, §8, §9, §10, §11, §12

[5] = Compound A Benzyl Ester 3.75 gae/ha
[6] = Compound A Benzyl Ester 7.5 gae/ha
[7] = Compound A Benzyl Ester 15 gae/ha

## CCC/C(=N\OCC(C)Oc1ccc(Cl)cc1)C1=C(O)CC(C2CCCSC2)CC1=O (stereo not drawn) [Profoxydim, 2-[1-[[2-(4-chlorophenoxy)propoxy]imino]butyl]-3-hydroxy-5-(tetrahydro-2H-thiopyran-3-yl)-2-cyclohexen-1-one, reference compound]
[1]; 12.5 gai/ha
  Visual Weed Control (%) - 20 DAA ECHCO Obs: 70%

## COc1c(Cl)ccc(-c2nc(C(=O)O)c(Cl)c(N)c2F)c1F [Compound A Acid, 4-amino-3-chloro-6-(4-chloro-2-fluoro-3-methoxyphenyl)-5-fluoropyridine-2-carboxylic acid]
[2]; 8.75 gae/ha
  Visual Weed Control (%) - 26 DAA ISCRU Obs: 37%
[2]; 17.5 gae/ha
  Visual Weed Control (%) - 26 DAA ISCRU Obs: 63%
[1]; 4.38 gae/ha
  Visual Weed Control (%) - 20 DAA ECHCO Obs: 40%
[1]; 8.75 gae/ha
  Visual Weed Control (%) - 20 DAA ECHCO Obs: 60%
[1]; 17.5 gae/ha
  Visual Weed Control (%) - 20 DAA ECHCO Obs: 85%
[3]; Compound A Acid 3.75 gae/ha
  Visual Weed Control (%) - 14 DAA AVEFA Obs: 0%
[3]; Compound A Acid 7.5 gae/ha
  Visual Weed Control (%) - 14 DAA AVEFA Obs: 0%
[3]; Compound A Acid 15 gae/ha
  Visual Weed Control (%) - 14 DAA AVEFA Obs: 0%
[4]; Compound A Acid 3.75 gae/ha
  Visual Weed Control (%) - 14 DAA LOLMU Obs: 0%
[4]; Compound A Acid 7.5 gae/ha
  Visual Weed Control (%) - 14 DAA LOLMU Obs: 10%
[4]; Compound A Acid 15 gae/ha
  Visual Weed Control (%) - 14 DAA LOLMU Obs: 10%

## COc1c(Cl)ccc(-c2nc(C(=O)OCc3ccccc3)c(Cl)c(N)c2F)c1F [Compound A Benzyl Ester, benzyl ester of 4-amino-3-chloro-5-fluoro-6-(4-chloro-2-fluoro-3-methoxy-phenyl)pyridine-2-carboxylic acid]
[2]; 8.75 gae/ha
  Visual Weed Control (%) - 26 DAA ISCRU Obs: 18%
[2]; 17.5 gae/ha
  Visual Weed Control (%) - 26 DAA ISCRU Obs: 33%
[1]; 8 gae/ha
  Visual Weed Control (%) - 21 DAA ECHCO Obs: 40%
[1]; 16 gae/ha
  Visual Weed Control (%) - 21 DAA ECHCO Obs: 70%
[1]; 32 gae/ha
  Visual Weed Control (%) - 21 DAA ECHCO Obs: 95%
[3]; [5]
  Visual Weed Control (%) - 14 DAA AVEFA Obs: 10%
[3]; [6]
  Visual Weed Control (%) - 14 DAA AVEFA Obs: 0%
[3]; [7]
  Visual Weed Control (%) - 14 DAA AVEFA Obs: 10%
[4]; [5]
  Visual Weed Control (%) - 14 DAA LOLMU Obs: 0%
[4]; [6]
  Visual Weed Control (%) - 14 DAA LOLMU Obs: 10%
[4]; [7]
  Visual Weed Control (%) - 14 DAA LOLMU Obs: 10%

## CCCCOC(=O)[C@@H](C)Oc1ccc(Oc2ccc(C#N)cc2F)cc1 [Cyhalofop-butyl, butyl(2R)-2-[4-(4-cyano-2-fluorophenoxy)phenoxy]propanoate, reference compound]
[2]; 140 gai/ha
  Visual Weed Control (%) - 26 DAA ISCRU Obs: 10%

## CCOC(=O)[C@@H](C)Oc1ccc(Oc2cnc3cc(Cl)ccc3n2)cc1 [Quizalofop-p-ethyl, ethyl(2R)-2-[4-[(6-chloro-2-quinoxalinyl)oxy]phenoxy]propanoate, reference compound]
[3]; Quizalofop-p-ethyl 14.25 gae/ha
  Visual Weed Control (%) - 14 DAA AVEFA Obs: 40%
[4]; Quizalofop-p-ethyl 3.56 gae/ha
  Visual Weed Control (%) - 14 DAA LOLMU Obs: 0%
[4]; Quizalofop-p-ethyl 7.125 gae/ha
  Visual Weed Control (%) - 14 DAA LOLMU Obs: 60%
